Experimental data from PMC4464647, “ANO1 (TMEM16A) in pancreatic ductal adenocarcinoma (PDAC)” (Pflugers Archiv, 2014).
d = 2'-deoxy (DNA)

Key:
Capan-1 cells = assay: BrdU incorporation cell proliferation assay; type: cell-based, human; conditions: Capan-1, inhibitor 20 μM, 24 h
Protocol: (§1) To assess cell proliferation and apoptosis, cells were plated in duplicates on a 96-well plate and incubated in 100 μl of the cell line appropriate media described above. Cells were transfected with siRNA soon after complete attachment (approx. 3 h after seeding). Cells were treated with vehicle, 20 μM gemcitabine, 20 μM T16Ainh-A01, or 10 μM free NS3728 (see below) after culture in a humidified 37 °C and 5 % CO2 incubator overnight. BrdU incorporation was measured using Cell Proliferation ELISA, BrdU (chemiluminescent) (Roche Diagnostics A/S, Denmark) following the manufacturer’s instructions. Caspases 3, 6, and 7 activation was evaluated using Homogeneous Caspases Assay (fluorimetric) (Roche Diagnostics A/S, Denmark).
(§2) Fig. 7 VRAC, but not ANO1, regulates cellular proliferation. a Summary of BrdU incorporation in HPDE, Capan-1, AsPC-1, and BxPC-3 cells after various treatments as indicated. Cells were transfected shortly after complete attachment (approx. 3 h) and BrdU incorporation was assessed 36 h after transfection. To investigate effect of inhibitors, cells were incubated for 24 h with respective inhibitor. Values shown are relative to appropriate control. Data shown represents mean ± s.e.m. of n = 4–6 individual experiments. **p ≤ 0.01 and ***p ≤ 0.001 when compared with control

HPDE cells = assay: BrdU incorporation cell proliferation assay; type: cell-based, human; conditions: inhibitor 20 μM, 24 h
Protocol: as §1, §2

[1] = system: HPDE, Capan-1, AsPC-1 and BxPC-3 cells; assay: Homogeneous caspases assay after gemcitabine treatment; type: cell-based, human; conditions: T16Ainh-A01, 24 h
Protocol: as §1, with “Denmark). […]” for “Denmark).”

CFPAC-1 = system: CFPAC-1; set-up: method as in Mazzone et al. [23]; conditions: CFPAC-1, 10 μM, ref Mazzone et al. [23]; cited from earlier work
[2] = system: bronchial epithelial cells; set-up: method as in Scudieri et al. [39]; conditions: ref Scudieri et al. [39], cited from earlier work
ANO1 = assay: Western blot of ANO1 protein expression after siRNA knockdown; type: cell-based, human; conditions: 36 h after transfection, β-actin loading control
Protocol: DharmaFECT 1 Transfection Reagent (Thermo Scientific, Germany) was used for transfection of siRNA targeting ANO1 (50 nM final concentration) or scrambled (5 nM final concentration). Cells were transfected according to the manufacturer’s protocol. Predesigned siRNA oligo was obtained from Sigma-Aldrich (5′-[…][dT][dT]-3′, 5′-[…][dT][dT]-3′) or negative control (Silencer® Negative Control No. 1 siRNA; Ambion, Denmark). ANO1 overexpressing HEK293 cells were generated by adding 0.5 μg/ml mANO1-GFP vector to DMEM containing 1 % v/v penicillin and streptomycin. The mixture was vortexed and incubated for 5 min, and 20 μg/ml polyethylenimine (PEI) was added. The mixture was vortexed again and added drop-wise to 60 % confluent HEK293 cells in DMEM medium containing 5 % v/v FBS and 1 % v/v penicillin and streptomycin after 10 min incubation at room temperature. Media was changed after 4 h incubation at 37 °C and 5 % CO2.
Protein was isolated from cells 36 h after transfection with siRNA targeting ANO1, in a lysis buffer containing (in mM): 10 Tris–HCl, 10 EDTA, 1 % sodium dodecyl sulfate (SDS), 0.5 % sodium deoxycholate, and 1 % complete protease inhibitor mixture (Roche, Denmark), pH 7.4, and was separated by 7 % SDS-PAGE. Protein was subsequently transferred to nitrocellulose membrane (Novex, Denmark). […]
Fig. 3 ANO1 is the major contributor of CaCC currents in PDAC cells and is sensitive to Cl^− channel inhibitors and siRNA. Whole-cell patch-clamp recordings with 1 μM Ca^2+ in pipette solution. a Representative current traces measured in Capan-1 cells upon exposure to different inhibitors. b Quantification of CaCC currents at +67 mV recorded with inhibitors compared to currents in presence of DMSO; currents of siANO1 cells were compared to those of MOCK transfected cells. c Steady-state I–V relationships of cells transfected with either scrambled siRNA (MOCK) or siRNA targeting ANO1. d Densitometric quantification of Western blot analysis of siRNA knockdown. β-Actin was used as a loading control. […]

CC(C)(C)C1CCc2c(sc(NC(=O)c3ccco3)c2C(=O)O)C1 (stereo not drawn) [CaCCinh-A01, 6-(1,1-dimethylethyl)-2-[(2-furanylcarbonyl)amino]-4,5,6,7-tetrahydrobenzo[b]thiophene-3-carboxylic acid]
proliferation (BrdU incorporation) (Capan-1 cells): decreased proliferation in Capan-1 slightly

CCc1c(C)nc(SCC(=O)Nc2nc(-c3ccc(OC)cc3)cs2)[nH]c1=O [T16Ainh-A01, 2-[(5-Ethyl-1,6-dihydro-4-methyl-6-oxo-2-pyrimidinyl)thio]-N-[4-(4-methoxyphenyl)-2-thiazolyl]acetamide]
proliferation (BrdU incorporation) (HPDE cells): showed inhibited proliferation
protection from apoptosis (Caspase-3 activity) [1]: less pronounced
proliferation (CFPAC-1): decrease in proliferation
inhibition of Ca2+-activated Cl− secretion ([2]; 10 μM): relatively weak inhibition
UTP-induced Cl− secretion in short-circuit current recordings ([2]; cells prior exposed to 10 μM): significantly attenuated

siRNA targeting ANO1: Predesigned siRNA oligo from Sigma-Aldrich, 5′-CCUUCAACGUCAGUGACUU[dT][dT]-3′, 5′-AAGUCACUGACGUUGAAGG[dT][dT]-3′ (RNA, 3' dTdT, backbone not given here)
ANO1 protein expression decreased to (ANO1; AsPC-1 cells): 54 ± 14%
ANO1 protein expression decreased to (ANO1; BxPC-3 cells): 20 ± 7%
ANO1 protein expression decreased to (ANO1; Capan-1 cells): 37 ± 8%
